Assays:
[1] = system: NeutrAvidin-specific antibody; assay: NeutrAvidin-specific antibody titer in sera of mice given biotinylated peptide/NeutrAvidin complex, ELISA (Test Example 12); assay type: in vivo, mouse; details: 5 μg as NeutrAvidin, base of tail Day 0 and Day 10, serum Day 17, IgG
From the text: A biotinylated peptide was synthesized by linking the N-terminus of each of FL4 identified in Test Example 1, a peptide Mut 1 (amino acid sequence: ASYKAIR (SEQ ID NO: 2)) derived from FL4 of which the 1st amino acid residue was substituted by an alanine residue, a peptide Mut 2 (amino acid sequence: VAYKAIR (SEQ ID NO: 3)) derived from FL4 of which the 2nd amino acid residue was substituted by an alanine residue, a peptide Mut 3 (amino acid sequence: VSAKAIR, SEQ ID NO: 43) derived from FL4 of which the 3rd amino acid residue was substituted by an alanine residue, and a peptide Mut 4 (amino acid sequence: VSYKAAR, SEQ ID NO: 44) derived from FL4 of which the […] amino acid residue was substituted by an alanine residue to biotin. Subsequently, a biotinylated peptide/NeutrAvidin complex was produced by mixing each of the obtained biotinylated peptides and NeutrAvidin.
50 μL of physiological saline containing 5 μg of the complex or NeutrAvidin in terms of NeutrAvidin amount was administered into the base of the tail of each 7-week old C57BL/6 mouse on Day 0 and Day 10, and blood was collected on Day 17. As a control, a test was also carried out in the case where only physiological saline was administered in the same manner Meanwhile, in these tests, five mice in each group were used.
Sera were obtained from the blood collected on Day 17 and NeutrAvidin-specific antibody titer (IgG) in the sera was measured by ELISA. In FIG. 18, “NA” refers to the case of administration of NeutrAvidin, and “NA-FL4” refers to the case of administration of the biotinylated FL4/NeutrAvidin complex. Other peptides are shown in the same display format. Further, in FIG. 18, “cont” refers to the case where physiological saline was administered.

[2] = system: CD4^+ T cells contained in splenocytes; assay: Binding of phage clones to CD4+ T cells contained in splenocytes, flow cytometry (Test Example 6); assay type: cell-based, mouse; details: phage clone 1.6×10^10 pfu/mL, 1×10^5 splenocytes
Procedure: (§1) Specifically, 1×10^5 splenocytes collected from mice and 1.6×10^10 pfu/mL of each phage clone were mixed, and the biotinylated antibody to the phage was added. Further, streptavidin modified with a fluorescent dye was added, and the binding of the phage to splenocytes was evaluated by flow cytometric analysis.

[3] = system: dendritic cells contained in splenocytes; assay: Binding of phage clones to dendritic cells contained in splenocytes, flow cytometry (Test Example 6); assay type: cell-based, mouse; details: phage clone 1.6×10^10 pfu/mL, 1×10^5 splenocytes
Procedure: as §1

[4] = system: mouse-derived dendritic cells (FL-DCs); assay: Binding of phage clones to mouse-derived dendritic cells by flow cytometric analysis (Test Example 1); assay type: cell-based; details: phage clone displaying the peptide, 1.6×10^10 pfu/mL, 1×10^5 mouse-derived dendritic cells, flow cytometry with antibody against the phage
Procedure: Meanwhile, in the following test examples, unless otherwise indicated, as mouse-derived dendritic cells, dendritic cells (FL-DCs) that were obtained by culturing murine bone marrow cells in the presence of Flt3-L (final concentration 100 ng/ml) for 1 week to induce differentiation were used. In addition, in the following test examples, FL-DCs were analyzed in some cases separately for Plasmacytoid DCs (pDCs), CD11b positive dendritic cells (CD11b^+ DCs), and CD11b negative dendritic cells (CD11b^− DCs). Among the mouse-derived dendritic cells, pDCs is a group of CD11c positive and B220 positive cells; CD11b^+ DCs is a group of CD11c positive, B220 negative and CD11b positive cells among mouse-derived dendritic cells; CD11b^− DCs is a group of CD11c positive, B220 negative, and CD11b negative cells among mouse-derived dendritic cells.
Each of phages recovered by three panning operations was monocloned and amplified. 1×10^5 mouse-derived dendritic cells and 1.6×10^10 pfu/mL of each phage clone were mixed, and then the phage was assayed for the binding to dendritic cells by flow cytometric analysis using an antibody against the phage.
About 60 phage clones obtained were subjected to flow cytometric analysis as described above. As a result, 37 clones shown in Table 1 were identified as clones capable of binding to dendritic cells. […]

[5] = system: antigen-specific CD8^+ CTLs; assay: Tetramer assay on regional lymph nodes, CD8+ CTL inducibility (Test Example 8); assay type: in vivo, mouse; details: co-administered with CpG oligodeoxynucleotide, 50 μg in terms of SL8 subcutaneously into the ears Day 0, lymph nodes Day 7
Procedure: A fusion peptide (SL8-FL4) was prepared by linking the N-terminus of the peptide consisting of the amino acid sequence of FL4 to the C-terminus of SL8 (SIINFEKL; SEQ ID NO: 40) which is an MHC class I epitope peptide in chicken ovalbumin (OVA). Specifically, the amino acid sequence of the fusion peptide is [Amino acid sequence of SL8 (SIINFEKL; SEQ ID NO: 40)]-[VSYKAIR; SEQ ID NO: 1]. The production method of the fusion peptide was the same as that of PspA-FL4 except that a DNA molecule encoding SL8 was used. In addition, each of peptide-fusion bodies (SL8-F8 and SL8-FL4Scr) in which the peptide was fused with SL8 was prepared using each of FL8 and the scramble peptide of FL4 (FL4Scr, amino acid sequence: YRSIVKA, SEQ ID NO: 41) in the same manner. […]
The tetramer assay was carried out as follows. Lymphocytes were recovered from the regional lymph nodes, were stained with fluorescently labeled antibodies against CD44 and CD8 and a fluorescently labeled tetramer recognizing the SL8 peptide presented on H-2K^b, then were analyzed using a flow cytometer.

EG7 cells = assay: Tumor size in mice transplanted with EG7 cells (Test Example 9); assay type: in vivo, mouse; details: EG7 tumor bearing C57BL/6 mice, 50 μg as SL8 with 50 μg CpG oligodeoxynucleotide subcutaneously into the ears, compared with physiological saline
Procedure: In this test, whether the regression effect of cancer was observed by SL8-specific CD8^+ CTLs induced by SL8-FL4 was evaluated. In this test, EG7 cells (cancer cells expressing OVA protein in EL4 cells derived from thymoma of C57BL/6 mouse) were used as cancer cells. Specific test methods are as follows.
1 (10^6 EG7 cells were transplanted into the abdomen of 7-week old C57BL/6 mice to prepare tumor bearing mice. 50 μL of physiological saline containing 50 μg of SL8-FL4 in terms of SL8 amount and 50 μg of CpG oligodeoxynucleotide (K3 type, product name “K3 Et-Free”, product number “CN-65003” manufactured by GeneDesign Inc.) was administered subcutaneously into the ears of mice after EG7 cells were transplanted and the tumor diameter reached about 5 mm (about 5 days after transplantation). Thereafter, tumor size was measured over time while breeding the mice. In addition, similar tests were carried out with regard to the case where 50 μL of physiological saline containing 50 μg SL8 and 50 μg of CpG oligodeoxynucleotide was administered, and the case where only physiological saline was administered (control). Meanwhile, in these tests, five mice in each group were used.

PspA-specific antibodies = assay: PspA-specific antibody titer in sera of mice given fusion peptide, ELISA (Test Example 2); assay type: in vivo, mouse; details: C57BL/6 mice
Procedure: 50 μL of physiological saline containing 1 μg of the fusion peptide or PspA in terms of PspA amount was administered into the base of the tail of each of 7-week old C57BL/6J JmsSlc mice (hereinafter sometimes abbreviated as C57BL/6 mice) on Day 0 and Day 10, and blood was collected on Day 17. As a control, a test was also carried out in the case where only physiological saline was administered in the same manner. Further, a test was also carried out in the case where 50 μL of physiological saline containing 10 μg of CpG oligodeoxynucleotide (K3 type, product name “K3 Et-Free”, product number “CN-65003” manufactured by GeneDesign Inc.) in addition to 1 μg of the fusion peptide or PspA in terms of PspA amount was administered in the same manner Meanwhile, in these tests, five mice in each group were used.
Sera were obtained from the blood collected on Day 17 and PspA-specific antibody titers (IgG, IgG1, and IgG2a) in the sera were measured by ELISA. In FIGS. 3 to 5, “PspA WT” refers to PspA, “PspA-FL4” refers to the fusion peptide in which the N-terminus of a peptide obtained by binding three amino acid sequences of FL4 directly and tandemly was linked to the C-terminus of PspA, “PspA WT+CpG” refers to the case where PspA and CpG oligodeoxynucleotide were administered. In addition, in FIGS. 3 to 5, the same meaning applies to the same display format as “PspA-FL4” and “PspA WT+CpG”. […]

Streptococcus pneumoniae = Streptococcus pneumoniae challenge of mice immunized with fusion peptide (Test Example 3); assay type: in vivo
Procedure: The following test was carried out by using a fusion peptide (FL4-PspA, amino acid sequence: [Amino acid sequence of PspA]-[VSYKAIR; SEQ ID NO: 1]-[VSYKAIR; SEQ ID NO: 1]-[VSYKAIR; SEQ ID NO: 1]) that was prepared in Test Example 2, by linking the N-terminus of a peptide obtained by binding three amino acid sequences of FL4 directly and tandemly to the C-terminus of PspA.
Immunity induction was carried out by administering 50 μL of physiological saline containing 1 μg of FL4-PspA or PspA in terms of PspA amount into the base of the tail of each of 7-week old C57BL/6 mice on Day 0 and Day 10. Then, intranasal administration (one of the nostrils of 15 μL) of Streptococcus pneumoniae (1.7×10^9 cfu/ml: […]) was performed on Day 18, and the body weight and survival rate of each mouse after Streptococcus pneumoniae administration were determined. In addition, as a control, a test was also carried out in the case where only physiological saline was administered in the same manner without conducting immunization. Further, a test was also carried out in the case where 50 μL of physiological saline containing 10 μg of CpG oligodeoxynucleotide (K3 type, product name “K3 Et-Free”, product number “CN-65003” manufactured by GeneDesign Inc.) in addition to 1 μg of FL4-PspA or PspA in terms of PspA amount was administered in the same manner Meanwhile, in these tests, five mice in each group were used.
Meanwhile, in FIG. 6, the day on which Streptococcus pneumoniae was administered is shown as Day 0. In addition, the meanings of the abbreviations in FIG. 6 are as indicated in the column of Test Example 2 above.

## ASYKAIR (Amino acid sequence of motif sequence) [Mut 1]
[1]
  NeutrAvidin-specific antibody production: excellent production ability

## GGSKPVR (phage display; displayed peptide) [FL8]
[2]
  binding of phage clone to CD4+ T cells contained in splenocytes: also bound to CD4^+ T cells contained in splenocytes
[3]
  binding of phage clone to dendritic cells contained in splenocytes: bind to all dendritic cells contained in splenocytes
[4]
  binding of phage clone to dendritic cells: binding to bone marrow-derived dendritic cells was confirmed

## SIINFEKL [SL8, reference compound]
[5]
  induction of antigen-specific CD8+ CTLs (tetramer assay, regional lymph nodes): could not be induced
EG7 cells
  tumor regression effects: some tumor regression effects

## VAYKAIR (Amino acid sequence of motif sequence) [Mut 2]
[1]
  NeutrAvidin-specific antibody production: excellent production ability

## VSAKAIR (Mut3 peptide) [Mut 3]
[1]
  NeutrAvidin-specific antibody production: an excellent antibody-producing ability is recognized unlike the case where each of the amino acid sequences of Mut 3 and Mut 4 is contained

## VSYKAAR (Mut 4 peptide)
[1]
  NeutrAvidin-specific antibody production: an excellent antibody-producing ability is recognized unlike the case where each of the amino acid sequences of Mut 3 and Mut 4 is contained

## [Amino acid sequence of PspA]-[VSYKAIR; SEQ ID NO: 1]-[VSYKAIR; SEQ ID NO: 1]-[VSYKAIR; SEQ ID NO: 1] [PspA-FL4]
PspA-specific antibodies; 1 μg in terms of PspA into base of tail Day 0 and Day 10, serum Day 17, ELISA
  production ability of PspA-specific antibodies: remarkably improve
PspA-specific antibodies; fusion peptide without adjuvant, serum Day 17
  PspA-specific antibody titer compared with PspA and adjuvant (CpG oligodeoxynucleotide) administered at the same time: remarkably higher
Streptococcus pneumoniae; C57BL/6 mice immunized Day 0 and Day 10 (1 μg as PspA), intranasal 5.1×10^7 cfu/mouse Day 18
  body weight after administration of Streptococcus pneumoniae: no decrease in body weight was observed
Streptococcus pneumoniae; C57BL/6 mice, Streptococcus pneumoniae intranasal challenge
  infection protective ability: strong infection protective ability
Streptococcus pneumoniae; after 10 days from the administration of Streptococcus pneumoniae, C57BL/6 mice
  survival rate: 100%

— patent publication US11186618B2, “Dendritic-cell-targeted peptide, fusion peptide utilizing said peptide, and vaccine utilizing said fusion peptide” (The Research Foundation for Microbial Diseases of Osaka …, priority 2016, dated 2021)
